Source: patent publication US7943630B2, “3,9-diaza-spiro[5.5]undecane derivatives and their use as monoamine neurotransmitter re-uptake inhibitors” (Neurosearch A/S, priority 2005, dated 2011)

melting point [°C]	Compound
201.4 to 202.2	Fc1ccc(N2CCC3(CCNCC3)CC2)cc1Cl.O=C(O)/C=C/C(=O)O
175.8 to 177.6	COc1ccc2cc(N3CCC4(CCNCC4)CC3)ccc2c1 [3rd compound of method C, 3-(6-Methoxy-naphthalen-2-yl)-3,9-diaza-spiro[5.5]undecane]
158 to 162	c1ccc2cc(N3CCC4(CCNCC4)CC3)ccc2c1 [10th compound of method C, 3-Naphthalen-2-yl-3,9-diaza-spiro[5.5]undecane]

More lines, now with the values behind:

Compound	melting point [°C]
Clc1ccc(N2CCC3(CCNCC3)CC2)nc1	71.2 to 72.9
Brc1cccc(N2CCC3(CCNCC3)CC2)n1.O=C(O)/C=C/C(=O)O	198.5 to 199.3
Clc1cccc(N2CCC3(CCNCC3)CC2)c1Cl	80.4 to 81.9
Brc1ccc(N2CCC3(CCNCC3)CC2)nc1	103 to 105
Clc1ccc(N2CCC3(CCNCC3)CC2)cc1Cl [4th compound of method C, 3-(3,4-Dichloro-phenyl)-3,9-diaza-spiro[5.5]undecane]	209 to 212
Clc1ccc(N2CCC3(CCNCC3)CC2)cc1 [7th compound of method C, 3-(4-Chloro-phenyl)-3,9-diaza-spiro[5.5]undecane]	95.5 to 97.4
